The target of one assay is T1, human recombinant ATX (Homo sapiens, UniProt Q13822).
T1 construct: purchased Cayman Chemical
Nature of the assay: Choline oxidase assay of LPC cleavage by ATX. It is filed as biochemical. Particulars: LPC 16:0 300 µM, ATX 50 nM, 2 h, 37 °C, various concentrations. The protocol:
(a) Concentration–response curves for the inhibition of ATX activity as measured by the […] of the substrate lysophosphatidylcholine (LPC) using choline oxidase and peroxidase. LPC 16:0 (final concentration: 300 µM, above its critical micellar concentration [CMC]), human recombinant ATX (final concentration: 50 nM), and various concentrations of cPA analogues were used for incubation with 4-aminoantipyrine, TOOS (final concentration: 0.05% (w/v) each), choline oxidase and peroxidase (final concentration: 10 U/mL each) in the ATX assay buffer. […] Inhibition was calculated as percentage (%) of reduction in absorbance compared with absorbance in the vehicle control (without cPA analogues) after subtraction of the value measured at time 0. Data are represented as mean ± standard deviation (n = 3–4 samples). (b) Inhibition of ATX activity measured by lysophosphatidic acid (LPA 16:0) production via liquid chromatography coupled to triple quadrupole mass spectrometry (LC-QqQ). The substrate LPC 16:0 (final concentration: 300 µM) was incubated with human recombinant ATX (final concentration: 50 nM) and cPA analogues (final concentration: 10 μM) for 2 h at 37 °C. The ATX product, LPA 16:0, was quantified by LC-QqQ. Inhibition was calculated as percentage (%) of reduction in LPA production compared with LPA production in the vehicle control (without cPA analogues). Data are represented as mean ± standard deviation (n = 5–6 samples).
Human recombinant ATX (50 nM final concentration, 5 µL in ATX assay buffer: 50 mM Tris, 140 mM NaCl, 5 mM KCl, 1 mM CaCl2, 1 mM MgCl2, pH 8.0) and cPA analogues (5 µL each in ATX assay buffer) at various concentrations were added in a 96-well plate and mixed with 90 µL of LPC 16:0 (final concentration: 300 µM) as substrate, 4-aminoantipyrine, TOOS (final concentration: 0.05% w/v each), choline oxidase and peroxidase (final concentration: 10 units/mL each) in ATX assay buffer. […] Inhibition was calculated as a percentage (%) of reduction in absorbance compared to absorbance in the vehicle control (without cPA analogues) after subtraction of the value measured at time 0.

The next assay deals with T2, hLPA5 (Homo sapiens, UniProt Q9H1C0).
T2 construct: expressed in transfected cells; host or cells: 293A cells
The assay can be described thus: TGFα-shedding assay, LPA5. Particulars: 293A cells, AP-TGFα release; for EC50: 1 h, with Ki16425 10 μM; for Emax: read-out: Emax ± SEM hLPA5 (converted). The assay is classed as cell-based. The protocol: (§1) 293A cells expressing LPA receptors were stimulated with the indicated concentration of LPA, 2carbaLPA, and cPA analogues. Receptor-specific alkaline phosphatase-tagged transforming growth factor-α release was calculated by subtracting the responses in the empty vector-transfected cells from those in the receptor-expressing cells. Data are represented as standard error of the mean of three independent replicates.
(§2) 293A cells (Life Technologies, Tokyo, Japan) were cultured in DMEM (Nissui Pharmaceutical, Tokyo, Japan) supplemented with 10% foetal calf serum (Gibco, Waltham, MA, USA) in an incubator at 37 °C and 5% CO2. This assay was conducted according to a modified version of a method described previously. […] The cells were co-transfected with vectors-expressing human LPA1–6, alkaline phosphatase-tagged TGFα (AP-TGFα). As negative controls, cells transfected with an empty vector instead of the receptor-expressing vector were used. After 24 h, the cells were resuspended in Hank’s balanced salt solution (HBSS), seeded in 96-well plates, and stimulated with cPA analogues administered at tenfold concentration of the final concentration. The cPA analogues were diluted with HBSS, 0.01% protease and fatty acid-free BSA (SERVA Electrophoresis GmbH, Heidelberg, Germany). Cells for LPA4, LPA5, and LPA6 analysis were treated with Ki16425 (final concentration: 10 μM), 5 min before treatment with the cPA analogues. After incubation for 1 h at 37 °C, 80 µL of the supernatant was transferred to fresh 96-well plates. An equal volume of 1 mM p-NPP solution [120 mM Tris–HCl (pH 9.5), 40 mM NaCl, and 10 mM MgCl2] was added to both the supernatant and the cells. Alkaline phosphatase activity was calculated by measuring absorbance at 405 nm using the Cytation 3 plate reader (BioTek, Winooski, VT, USA).

The target of another assay is T3, hLPA3 (Homo sapiens, UniProt Q9UBY5).
T3 construct: expressed in transfected cells; host or cells: 293A cells
T3 sequence (Q9UBY5 1-353): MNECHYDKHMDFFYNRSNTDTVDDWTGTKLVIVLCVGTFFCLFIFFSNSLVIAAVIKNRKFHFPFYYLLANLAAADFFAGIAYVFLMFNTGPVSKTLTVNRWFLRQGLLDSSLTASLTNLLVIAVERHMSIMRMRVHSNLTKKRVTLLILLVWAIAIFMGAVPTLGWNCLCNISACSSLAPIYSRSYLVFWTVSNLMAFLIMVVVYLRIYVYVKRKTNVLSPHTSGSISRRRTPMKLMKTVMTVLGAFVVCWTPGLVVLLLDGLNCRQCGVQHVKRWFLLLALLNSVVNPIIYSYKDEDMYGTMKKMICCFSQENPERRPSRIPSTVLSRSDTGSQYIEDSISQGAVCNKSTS
Nature of the assay: TGFα-shedding assay, LPA3. Particulars: 293A cells, AP-TGFα release; for EC50: 1 h; for Emax: read-out: Emax ± SEM hLPA3 (converted). The assay is classed as cell-based. The protocol:
as §1, §2

A further assay concerns the target T4, hLPA4 (Homo sapiens, UniProt Q99677).
T4 construct: expressed in transfected cells; host or cells: 293A cells
The assay can be described thus: TGFα-shedding assay, LPA4. It is filed as cell-based. Particulars: 293A cells, AP-TGFα release; for EC50: 1 h, with Ki16425 10 μM; for Emax: read-out: Emax ± SEM hLPA4 (converted). The protocol:
as §1, §2

For a further assay, the target named is T5, hLPA6 (Homo sapiens, UniProt P43657).
T5 construct: expressed in transfected cells; host or cells: 293A cells
T5 sequence (P43657 1-344): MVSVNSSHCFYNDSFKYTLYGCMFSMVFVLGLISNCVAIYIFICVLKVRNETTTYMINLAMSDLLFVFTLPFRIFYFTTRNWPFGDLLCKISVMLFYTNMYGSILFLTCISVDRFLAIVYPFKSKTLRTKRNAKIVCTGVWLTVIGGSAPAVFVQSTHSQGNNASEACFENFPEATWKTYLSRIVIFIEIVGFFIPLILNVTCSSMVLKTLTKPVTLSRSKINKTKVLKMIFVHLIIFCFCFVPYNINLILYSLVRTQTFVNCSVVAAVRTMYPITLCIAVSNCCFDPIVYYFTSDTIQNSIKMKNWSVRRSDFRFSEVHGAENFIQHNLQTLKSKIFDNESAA
Nature of the assay: TGFα-shedding assay, LPA6. The assay is classed as cell-based. The following applies: 293A cells, AP-TGFα release; for EC50: 1 h; for Emax: read-out: Emax ± SEM hLPA6 (converted). The protocol: as §1, §2

The results in this text go back to article PMC8405639, “2-Carba-lysophosphatidic acid is a novel β-lysophosphatidic acid analogue with high potential for lysophosphatidic acid receptor activation and autotaxin inhibition” (Scientific Reports, 2021).

The term EC50 denotes the concentration giving half of the maximal effect. A high value points to weaker potency. The term Emax denotes the maximal effect, on the per cent scale that the assay sets.

Structures are written as SMILES.

T4 sequence (Q99677 whole entry): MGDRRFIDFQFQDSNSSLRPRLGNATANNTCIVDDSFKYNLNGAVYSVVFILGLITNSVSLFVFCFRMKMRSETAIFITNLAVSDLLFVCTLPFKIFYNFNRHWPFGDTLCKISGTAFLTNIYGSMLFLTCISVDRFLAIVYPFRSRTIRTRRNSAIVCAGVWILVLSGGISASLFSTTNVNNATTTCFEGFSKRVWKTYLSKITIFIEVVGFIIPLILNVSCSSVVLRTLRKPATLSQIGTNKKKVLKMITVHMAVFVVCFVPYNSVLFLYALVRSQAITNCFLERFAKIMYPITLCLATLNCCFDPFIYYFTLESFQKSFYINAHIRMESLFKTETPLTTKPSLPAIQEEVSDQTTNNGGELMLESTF
T2 sequence (Q9H1C0 whole entry): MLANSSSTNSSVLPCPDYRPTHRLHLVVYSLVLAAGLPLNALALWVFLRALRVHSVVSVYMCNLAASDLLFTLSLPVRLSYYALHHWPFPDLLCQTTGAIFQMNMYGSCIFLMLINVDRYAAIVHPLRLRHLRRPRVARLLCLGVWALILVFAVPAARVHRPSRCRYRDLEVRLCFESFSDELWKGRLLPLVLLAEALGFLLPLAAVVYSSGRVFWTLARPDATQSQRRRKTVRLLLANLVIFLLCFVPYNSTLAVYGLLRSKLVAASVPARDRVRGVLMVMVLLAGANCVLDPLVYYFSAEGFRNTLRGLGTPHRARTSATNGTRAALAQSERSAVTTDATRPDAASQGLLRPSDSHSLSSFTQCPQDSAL

Take `CCCCCCCC/C=C\CCCCCCCC(=O)OCC(CO)CP(=O)(O)O` (centres unmarked) [2carbaLPA 18:1, 2-carba-lysophosphatidic acid]: the “Inhibition of lysoPLD activity of ATX (choline oxidase assay)” value (from here on “Inhibition of lysoPLD activity of ATX”) on human recombinant ATX is “inhibited the lysoPLD activity of ATX in a dose-dependent manner”. Besides, the EC50 was 50.2 nM at hLPA5, 11.6 nM at hLPA3, 1 nM at hLPA4 and 90.9 nM on hLPA6 (with Ki16425 10 μM). Further, the Emax at hLPA5 was 38.3%; on hLPA3, 42.7%; on hLPA4 it was 24.9%; at hLPA6, 29.3%.
As for `CCCCCCCC/C=C\CCCCCCCC(=O)OCC1COP(=O)(O)C1` (centres unmarked) [2ccPA 18:1, 2-carba-cyclic phosphatidic acid], the “Inhibition of lysoPLD activity of ATX” value on human recombinant ATX is given as “inhibited the lysoPLD activity of ATX in a dose-dependent manner”. Moreover, the concentration giving a half-maximal response (EC50) on hLPA5 was 973 nM; on hLPA3, 286 nM; on hLPA4 it was 71.9 nM; on hLPA6 (bound), more than 3000 nM. The results for the Emax on hLPA5, on hLPA3 and on hLPA4 were 31.7%, 30.8% and 19.6%, respectively.
With `CCCCCCCC/C=C\CCCCCCCC(=O)OC[C@@H](O)CCP(=O)(O)O` [3carba LPA 18:1, 3-carba-lysophosphatidic acid], on human recombinant ATX, the “Inhibition of lysoPLD activity of ATX” value is recorded as “inhibited the lysoPLD activity of ATX in a dose-dependent manner”. The EC50 at hLPA5 is 89.3 nM; on hLPA3, 5.6 nM; on hLPA4, 1.9 nM; at hLPA6 (with Ki16425 10 μM), 132 nM. Moreover, the Emax on hLPA5 is 35.5%; on hLPA3, 44.3%; at hLPA4, 23.5%; at hLPA6, 27.1%.
On to `CCCCCCCC/C=C\CCCCCCCC(=O)OC[C@@H]1CCP(=O)(O)O1` [3ccPA 18:1, 3-carba-cyclic phosphatidic acid], for which the “Inhibition of lysoPLD activity of ATX” value on human recombinant ATX is “lower inhibitory activity than the other analogues, except for LPA and cPA”. The EC50 at hLPA5 is 2230 nM; at hLPA4, 92.3 nM; at hLPA6 (bound), more than 3000 nM. The Emax at hLPA5 is 51.2%; on hLPA3 it was 37.4%; on hLPA4, 23.3%.
On to `CCCCCCCC/C=C\CCCCCCCC(=O)OC[C@@H]1COP(=O)(O)O1` [cPA 18:1, 1-Oleoyl-cPA], for which the “Inhibition of lysoPLD activity of ATX” value on human recombinant ATX is recorded as “significantly lower inhibitory activity”. Also, the EC50 at hLPA5 was 354 nM; on hLPA3, 439 nM; on hLPA4, 32.8 nM; at hLPA6 (bound), more than 3000 nM. Also, the Emax on hLPA5 is 35.6%; at hLPA3, 16.8%; on hLPA4, 17.2%.
